Measurements as given in ChEMBL document CHEMBL4138123, “Design, synthesis and biological evaluation of novel pyrazolochalcones as potential modulators of PI3K/Akt/mTOR pathway and inducers of apoptosis in breast cancer cells” (Eur J Med Chem, 2017).

Columns and labels:
MDA-MB-231 [1] = test: Cytotoxicity against human MDA-MB-231 cells assessed as cell growth at 100 uM after 48 hrs by sulforhodamine B assay relative to control; assay type: functional; details: MDA-MB-231, 48 h, read-out: Activity
NCI/ADR-RES = test: Cytotoxicity against human NCI/ADR-RES cells assessed as cell growth at 10 uM after 48 hrs by sulforhodamine B assay relative to control; assay type: functional; details: read-out: Activity
786-0 [2] = test: Cytotoxicity against human 786-0 cells assessed as cell growth at 0.1 uM after 48 hrs by sulforhodamine B assay relative to control; assay type: functional; details: 786-0, 48 h, read-out: Activity
A549 = test: Cytotoxicity against human A549/ATCC cells assessed as cell growth at 1 uM after 48 hrs by sulforhodamine B assay relative to control; assay type: functional; details: A549, 48 h, read-out: Activity
MDA-MB-231 [3] = test: Cytotoxicity against human MDA-MB-231 cells assessed as growth inhibition after 48 hrs by MTT assay; assay type: functional, cell-based; details: MDA-MB-231, 48 h
A498 = test: Cytotoxicity against human A498 cells assessed as cell growth at 10 uM after 48 hrs by sulforhodamine B assay relative to control; assay type: functional; details: A498, 48 h, read-out: Activity
TK-10 = test: Cytotoxicity against human TK10 cells assessed as cell growth at 10 uM after 48 hrs by sulforhodamine B assay relative to control; assay type: functional; details: TK-10, 48 h, read-out: Activity
MOLT-4 [4] = test: Cytotoxicity against human MOLT4 cells assessed as cell growth at 1 uM after 48 hrs by sulforhodamine B assay relative to control; assay type: functional; details: MOLT-4, 48 h, read-out: Activity
ACHN = test: Cytotoxicity against human ACHN cells assessed as cell growth at 0.01 uM after 48 hrs by sulforhodamine B assay relative to control; assay type: functional; details: read-out: Activity
PC-3 [5] = test: Cytotoxicity against human PC3 cells assessed as cell growth at 1 uM after 48 hrs by sulforhodamine B assay relative to control; assay type: functional; details: PC-3, 48 h, read-out: Activity
SN12C [6] = test: Cytotoxicity against human SN12C cells assessed as cell growth at 10 uM after 48 hrs by sulforhodamine B assay relative to control; assay type: functional; details: read-out: Activity
SR = test: Cytotoxicity against human SR cells assessed as cell growth at 1 uM after 48 hrs by sulforhodamine B assay relative to control; assay type: functional; details: read-out: Activity
UACC-62 = test: Cytotoxicity against human UACC62 cells assessed as cell growth at 1 uM after 48 hrs by sulforhodamine B assay relative to control; assay type: functional; details: UACC-62, 48 h, read-out: Activity
NCI-H23 = test: Cytotoxicity against human NCI-H23 cells assessed as cell growth at 0.1 uM after 48 hrs by sulforhodamine B assay relative to control; assay type: functional; details: NCI-H23, 48 h, read-out: Activity
IGROV-1 [7] = test: Cytotoxicity against human IGROV1 cells assessed as cell growth at 10 uM after 48 hrs by sulforhodamine B assay relative to control; assay type: functional; details: IGROV-1, 48 h, read-out: Activity
SK-OV-3 = test: Cytotoxicity against human SKOV3 cells assessed as cell growth at 1 uM after 48 hrs by sulforhodamine B assay relative to control; assay type: functional; details: SK-OV-3, 48 h, read-out: Activity
HOP-62 [8] = test: Cytotoxicity against human HOP62 cells assessed as cell growth at 0.1 uM after 48 hrs by sulforhodamine B assay relative to control; assay type: functional; details: HOP-62, 48 h, read-out: Activity
HL-60(TB) [9] = test: Cytotoxicity against human HL-60(TB) cells assessed as growth inhibition after 48 hrs by sulforhodamine B assay; assay type: functional; details: HL-60, 48 h
HL-60(TB) [10] = test: Cytotoxicity against human HL-60(TB) cells assessed as cell growth at 10 uM after 48 hrs by sulforhodamine B assay relative to control; assay type: functional; details: HL-60, 48 h, read-out: Activity
PC-3 [11] = test: Cytotoxicity against human PC3 cells assessed as cell growth at 0.01 uM after 48 hrs by sulforhodamine B assay relative to control; assay type: functional; details: PC-3, 48 h, read-out: Activity
SF-539 = test: Cytotoxicity against human SF539 cells assessed as growth inhibition after 48 hrs by sulforhodamine B assay; assay type: functional; details: SF-539, 48 h
RXF 393 = test: Cytotoxicity against human RXF393 cells assessed as cell growth at 1 uM after 48 hrs by sulforhodamine B assay relative to control; assay type: functional; details: RXF 393, 48 h, read-out: Activity
SK-MEL-5 = test: Cytotoxicity against human SK-MEL-5 cells assessed as cell growth at 100 uM after 48 hrs by sulforhodamine B assay relative to control; assay type: functional; details: SK-MEL-5, 48 h, read-out: Activity
DU-145 = test: Cytotoxicity against human DU145 cells assessed as cell growth at 0.01 uM after 48 hrs by sulforhodamine B assay relative to control; assay type: functional; details: DU-145, 48 h, read-out: Activity
NCI-H460 = test: Cytotoxicity against human NCI-H460 cells assessed as growth inhibition after 48 hrs by sulforhodamine B assay; assay type: functional; details: NCI-H460, 48 h
786-0 [12] = test: Cytotoxicity against human 786-0 cells assessed as cell growth at 100 uM after 48 hrs by sulforhodamine B assay relative to control; assay type: functional; details: 786-0, 48 h, read-out: Activity
SK-MEL-28 [13] = test: Cytotoxicity against human SK-MEL-28 cells assessed as cell growth at 1 uM after 48 hrs by sulforhodamine B assay relative to control; assay type: functional; details: SK-MEL-28, 48 h, read-out: Activity
MOLT-4 [14] = test: Cytotoxicity against human MOLT4 cells assessed as cell growth at 10 uM after 48 hrs by sulforhodamine B assay relative to control; assay type: functional; details: MOLT-4, 48 h, read-out: Activity
SK-MEL-28 [15] = test: Cytotoxicity against human SK-MEL-28 cells assessed as growth inhibition after 48 hrs by sulforhodamine B assay; assay type: functional; details: SK-MEL-28, 48 h
SN12C [16] = test: Cytotoxicity against human SN12C cells assessed as cell growth at 0.01 uM after 48 hrs by sulforhodamine B assay relative to control; assay type: functional; details: read-out: Activity
UACC-257 [17] = test: Cytotoxicity against human UACC257 cells assessed as cell growth at 1 uM after 48 hrs by sulforhodamine B assay relative to control; assay type: functional; details: UACC-257, 48 h, read-out: Activity
IGROV-1 [18] = test: Cytotoxicity against human IGROV1 cells assessed as growth inhibition after 48 hrs by sulforhodamine B assay; assay type: functional; details: IGROV-1, 48 h
SK-MEL-28 [19] = test: Cytotoxicity against human SK-MEL-28 cells assessed as cell growth at 10 uM after 48 hrs by sulforhodamine B assay relative to control; assay type: functional; details: SK-MEL-28, 48 h, read-out: Activity
HOP-62 [20] = test: Cytotoxicity against human HOP62 cells assessed as cell growth at 10 uM after 48 hrs by sulforhodamine B assay relative to control; assay type: functional; details: HOP-62, 48 h, read-out: Activity
UACC-257 [21] = test: Cytotoxicity against human UACC257 cells assessed as cell growth at 0.01 uM after 48 hrs by sulforhodamine B assay relative to control; assay type: functional; details: UACC-257, 48 h, read-out: Activity
CCRF-CEM = test: Cytotoxicity against human CCRF-CEM cells assessed as cell growth at 0.1 uM after 48 hrs by sulforhodamine B assay relative to control; assay type: functional; details: read-out: Activity

## COc1ccc(C(=O)/C=C/c2cc(-c3ccc(OC)c(OC)c3)n[nH]2)cc1OC
MDA-MB-231 [1]
  growth at 100 µM: -28%
NCI/ADR-RES
  growth at 10 µM: 16%
786-0 [2]
  growth at 0.1 µM: 96%
A549
  growth at 1 µM: 77%
MDA-MB-231 [3]
  IC50: 1.1 µM
A498
  growth at 10 µM: -62%
TK-10
  growth at 10 µM: 25%
MOLT-4 [4]
  growth at 1 µM: 73%
ACHN
  growth at 0.01 µM: 93%
PC-3 [5]
  growth at 1 µM: 69%
SN12C [6]
  growth at 10 µM: -40%
SR
  growth at 1 µM: 5%
UACC-62
  growth at 1 µM: 89%
NCI-H23
  growth at 0.1 µM: 103%
IGROV-1 [7]
  growth at 10 µM: 6%
SK-OV-3
  growth at 1 µM: 90%
HOP-62 [8]
  growth at 0.1 µM: 84%
HL-60(TB) [9]
  GI50: 2.76 µM
  TGI: > 100 µM
HL-60(TB) [10]
  growth at 10 µM: 4%
PC-3 [11]
  growth at 0.01 µM: 99%
SF-539
  GI50: 0.525 µM
  TGI: 2.54 µM
RXF 393
  growth at 1 µM: 76%
SK-MEL-5
  growth at 100 µM: -96%
DU-145
  growth at 0.01 µM: 106%
NCI-H460
  GI50: 0.606 µM
  TGI: 4.36 µM
786-0 [12]
  growth at 100 µM: -32%
SK-MEL-28 [13]
  growth at 1 µM: 81%
MOLT-4 [14]
  growth at 10 µM: 5%
SK-MEL-28 [15]
  GI50: 1.82 µM
  TGI: 4.82 µM
SN12C [16]
  growth at 0.01 µM: 101%
UACC-257 [17]
  growth at 1 µM: 96%
IGROV-1 [18]
  GI50: 3.13 µM
  TGI: 53.8 µM
SK-MEL-28 [19]
  growth at 10 µM: -38%
HOP-62 [20]
  growth at 10 µM: -25%
UACC-257 [21]
  growth at 0.01 µM: 93%
CCRF-CEM
  growth at 0.1 µM: 94%

## COc1ccc(-c2cc(/C=C/C(=O)c3ccc(N)cc3)[nH]n2)cc1
MDA-MB-231 [1]
  growth at 100 µM: -65%
NCI/ADR-RES
  growth at 10 µM: 9%
786-0 [2]
  growth at 0.1 µM: 95%
A549
  growth at 1 µM: 84%
MDA-MB-231 [3]
  IC50: 1.7 µM
A498
  growth at 10 µM: -39%
TK-10
  growth at 10 µM: 12%
MOLT-4 [4]
  growth at 1 µM: 80%
ACHN
  growth at 0.01 µM: 103%
PC-3 [5]
  growth at 1 µM: 81%
SN12C [6]
  growth at 10 µM: -16%
SR
  growth at 1 µM: 45%
UACC-62
  growth at 1 µM: 79%
NCI-H23
  growth at 0.1 µM: 94%
IGROV-1 [7]
  growth at 10 µM: -21%
SK-OV-3
  growth at 1 µM: 105%
HOP-62 [8]
  growth at 0.1 µM: 100%
HL-60(TB) [9]
  GI50: 1.43 µM
  LC50: > 100 µM
  TGI: 7.71 µM
HL-60(TB) [10]
  growth at 10 µM: -8%
PC-3 [11]
  growth at 0.01 µM: 95%
SF-539
  GI50: 1.47 µM
  LC50 (concentration killing 50% of cells): 8.25 µM
  TGI: 3.48 µM
RXF 393
  growth at 1 µM: 78%
SK-MEL-5
  growth at 100 µM: -100%
DU-145
  growth at 0.01 µM: 104%
NCI-H460
  GI50: 2.07 µM
  LC50: 20.9 µM
  TGI: 4.95 µM
786-0 [12]
  growth at 100 µM: -57%
SK-MEL-28 [13]
  growth at 1 µM: 91%
MOLT-4 [14]
  growth at 10 µM: -2%
SK-MEL-28 [15]
  GI50: 1.87 µM
  LC50: 8.57 µM
  TGI: 4.01 µM
SN12C [16]
  growth at 0.01 µM: 93%
UACC-257 [17]
  growth at 1 µM: 90%
IGROV-1 [18]
  GI50: 2.27 µM
  LC50: 43.3 µM
  TGI: 6.45 µM
SK-MEL-28 [19]
  growth at 10 µM: -60%
HOP-62 [20]
  growth at 10 µM: -15%
UACC-257 [21]
  growth at 0.01 µM: 96%
CCRF-CEM
  growth at 0.1 µM: 98%
